# According to US7148200B2, “Method for treating cancer” (Toyo Suisan Kaisha, Ltd., priority 1999, dated 2006):
# Where a name gives a salt, the structure may show the parent alone.
# Molecular target: T1, DNA polymerase α (Bos taurus, UniProt A0AAA9TD94)
# T1 construct: from tissue; host or cells: bovine thymus
# T1 sequence (A0AAA9TD94 1-1441): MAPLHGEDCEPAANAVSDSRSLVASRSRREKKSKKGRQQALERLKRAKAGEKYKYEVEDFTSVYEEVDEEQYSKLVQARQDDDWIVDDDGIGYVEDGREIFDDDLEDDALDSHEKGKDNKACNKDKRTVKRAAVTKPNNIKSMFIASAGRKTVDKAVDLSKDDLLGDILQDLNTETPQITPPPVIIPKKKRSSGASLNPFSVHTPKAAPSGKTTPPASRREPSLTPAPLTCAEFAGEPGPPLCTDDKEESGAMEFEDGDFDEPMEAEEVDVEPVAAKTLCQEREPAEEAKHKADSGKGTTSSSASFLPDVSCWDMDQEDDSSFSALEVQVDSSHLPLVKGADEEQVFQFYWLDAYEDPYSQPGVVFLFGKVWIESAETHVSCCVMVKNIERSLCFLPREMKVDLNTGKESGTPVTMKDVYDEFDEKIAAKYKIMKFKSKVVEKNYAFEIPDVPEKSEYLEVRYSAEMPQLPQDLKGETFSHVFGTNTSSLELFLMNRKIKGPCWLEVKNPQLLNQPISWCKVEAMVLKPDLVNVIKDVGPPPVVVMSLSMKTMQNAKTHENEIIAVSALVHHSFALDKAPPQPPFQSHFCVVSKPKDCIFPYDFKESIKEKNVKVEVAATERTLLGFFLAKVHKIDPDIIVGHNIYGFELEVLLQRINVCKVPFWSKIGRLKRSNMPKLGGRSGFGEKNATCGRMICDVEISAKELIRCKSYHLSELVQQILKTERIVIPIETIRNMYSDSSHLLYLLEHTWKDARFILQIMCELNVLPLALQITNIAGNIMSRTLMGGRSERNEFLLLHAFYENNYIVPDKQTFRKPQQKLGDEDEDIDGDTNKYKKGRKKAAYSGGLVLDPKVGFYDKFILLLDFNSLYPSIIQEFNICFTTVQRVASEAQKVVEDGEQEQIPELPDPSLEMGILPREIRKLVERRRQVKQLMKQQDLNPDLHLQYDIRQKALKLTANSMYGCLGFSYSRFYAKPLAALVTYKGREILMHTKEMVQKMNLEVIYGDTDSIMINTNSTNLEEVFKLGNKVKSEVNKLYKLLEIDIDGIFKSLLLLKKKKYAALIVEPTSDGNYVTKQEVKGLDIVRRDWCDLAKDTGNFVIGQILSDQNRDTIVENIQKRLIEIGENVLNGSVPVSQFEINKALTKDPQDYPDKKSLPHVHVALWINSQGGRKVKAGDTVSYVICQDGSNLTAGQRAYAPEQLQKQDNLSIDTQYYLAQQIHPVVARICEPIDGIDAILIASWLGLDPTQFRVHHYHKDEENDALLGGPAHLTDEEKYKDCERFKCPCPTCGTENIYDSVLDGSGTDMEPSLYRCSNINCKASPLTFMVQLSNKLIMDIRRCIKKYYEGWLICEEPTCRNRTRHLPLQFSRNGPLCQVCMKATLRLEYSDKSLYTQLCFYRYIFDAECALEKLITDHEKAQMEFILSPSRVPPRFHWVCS
# Assay: Assay 1: inhibitory effect against DNA polymerase α ([3H]-dTTP incorporation)
# Format: biochemical
# Conditions: DNA polymerase α from bovine thymus, 37° C., 60 minutes
# Description: An assay on inhibitory effect against a DNA polymerase α was carried out in the following manner.
# 0.05 U of a DNA polymerase α purified and isolated from a bovine thymus by an immunoaffinity column was mixed with each of test compounds, sulfopyranosylacylglycerol (hereinafter, simply referred to as “SQAG”) derivatives, namely, SQAG 1, SQAG 2 and SQAG 3 (listed in table 1) dissolved in DMSO. Each mixture was added with a buffer containing inorganic salts for the enzymatic reaction, [^3H]-labeled dTTP and compounds for reaction containing a template DNA strand, and incubated at 37° C. for 60 minutes.
# After the enzymatic reaction was quenched, the resultant reaction product was fixed on a dedicated filter and subjected to measurement by a liquid scintillation counter. The amount of enzymatically incorporated dTTP was calculated as a radiation dose (cpm) of [^3H]. Note that, each of the sulfopyranosylacylglycerol derivatives is a mixture of the S- and R-configurations with respect to an absolute configuration of the carbon of the 2-position of the glycerol moiety.
row,SMILES,IC50 [µM]
1,"CCCC/C=C\CCCCCCCC(=O)OCC(O)CO[C@H]1O[C@H](CS(=O)(=O)O)[C@@H](O)[C@H](O)[C@H]1O (mixture of isomers) [SQAG1, 3-O-(6-deoxy-6-sulfo-α-D-glucopyranosyl)-1-o-myristoleoly-glycerol sodium salt]",17.1
2,"CCCCCC/C=C\CCCCCCCC(=O)OCC(O)CO[C@H]1O[C@H](CS(=O)(=O)O)[C@@H](O)[C@H](O)[C@H]1O (stereo partly drawn) [SQAG2, 3-O-(6-deoxy-6-sulfo-α-D-glucopyranosyl)-1-O-palmitoleoyl-glycerol sodium salt]",9.54
3,"CCCCCCCC/C=C\CCCCCCCC(=O)OCC(O)CO[C@H]1O[C@H](CS(=O)(=O)O)[C@@H](O)[C@H](O)[C@H]1O (stereo partly drawn) [SQAG3, 3-O-(6-deoxy-6-sulfo-α-D-glucopyranosyl)-1-O-oleoyl-glycerol Sodium Salt]",3.31
